One assay addresses T1, ALR2 (Homo sapiens, UniProt P15121).
T1 construct: The plasmid (pET28b, Novagen) containing the open reading frame of the human ALR2 gene; hexa-histidine (cleaved yes); made in house; host or cells: E. coli BL21 gold (DE3)
The assay can be described thus: Surface plasmon resonance (SPR) binding assay, Biacore T200. To be noted: ALR2 immobilized on CM5 chip, PBS-P+ buffer, room temperature; read-out: KD value (binding between ALR2 and compound, SPR). As to the method:
(§1) For the AKR1B1 enzyme assay and SPR measurements, the protein was expressed and purified using the protocol related to the one reported previously. The plasmid (pET28b, Novagen) containing the open reading frame of the human ALR2 gene was kindly provided by Atagenix, Wuhan, Hubei, China. The E. coli strain BL21 gold (DE3) (Novagen) was used to express the hexa-histidine tagged protein after induction with IPTG (Roth) for 16 h at 293 K. The pellet from a 4 L culture was resuspended in a buffer containing 20 mM Tris and 500 mM NaCl (pH 8.0) before being sonicated and centrifuged. A HiTrap chelating HP column (GE Healthcare) was loaded with the supernatant. After a short washing step with a low imidazole concentration, the fusion protein was eluted by applying a gradient of imidazole. The buffer was exchanged with 20mM Tris-HCl, 10 mM NaCl, 1mM EDTA, and the tag cleaved by thrombin (yuanyeBio-Technology Co. Ltd. Shanghai, China). A Hiprep DEAE FastFlow 16/10 column (GE Healthcare) was loaded with the remaining solution. A NaCl gradient was used to elute the ALR2 from the column.
SPR binding analysis methodology can be used to study molecular interactions. Herein, SPR was applied to measure the interactions between compounds 13/14 and ALR2. Initially, ALR2 was prepared in 10 mM sodium acetate (pH 5.0) and then immobilized covalently by an amine-coupling reaction on a CM5 sensor chip. […]

Assay [1] deals with T2, ALR2 (AKR1B1, aldose reductase) (Homo sapiens, UniProt P15121).
T2 construct: The plasmid (pET28b, Novagen) containing the open reading frame of the human ALR2 gene; hexa-histidine (cleaved yes); made in house; host or cells: E. coli BL21 gold (DE3)
Put plainly: ALR2 enzyme assay (in vitro). In kind it is biochemical. To be noted: for inhibition at 20 µM: read-out: ALR2 inhibition rate. As to the method: as §1
In the first step of the polyol pathway, glucose reduction is accompanied by the conversation of NADPH to NADP, where only NADPH has an obvious spectral absorption around 340 nm and NADP has none. Thus, the decrease in OD340nm can represent the consumption of NADPH. Therefore, we detect the change of OD340nm before and after reaction to screen the effective ARIs or evaluate the AR activity; assays with epalrestat were used as positive controls. Briefly, the incubation system contains 10 µL ALR2 enzyme (20 µg/mL), 80 µL DL-glyceraldehyde (0.16 mmol/L) as the substrate, 1.0 mmol/L NADPH·4Na as a coenzyme, and 0.1 mol/L PBS (pH = 6.2). […] Then, the absorbance was measured using FlexStation 3 Reader (Molecular Devices, San Francisco, CA, USA) at 340 nm. The absorbance of wells treated with PBS and NADPH was considered as 100% (OD1) and the absorbance of wells treated with PBS and DL-glyceraldehyde was considered as 0% (OD2); the inhibitory rate was calculated by the formula ODcompounds − OD2/OD1 − OD2. […]

From publication PMC9320028, “A Series of New Pyrrole Alkaloids with ALR2 Inhibitory Activities from the Sponge Stylissa massa” (Marine Drugs, 2022) come the findings set out here.

The Kd is the constant that tells how readily two partners part at equilibrium. Usually inhibition stands for the drop in the measured response relative to a control, in per cent. By IC50 is commonly meant the concentration that inhibits the measured activity by half.

Structures are written as SMILES. “And” between values parts separate entries of the source, which are not always exact repeats. Identical values can stand only once.

`NC1=NC(=O)/C(=C2\CCNC(=O)c3[nH]ccc32)N1` [Compound 13]: at ALR2, the equilibrium dissociation constant (Kd) amounted to 12.5 µM. Further, in assay [1], the inhibition at 20 µM was over 50%.
Regarding `NC1=NC(=O)/C(=C2/CCNC(=O)c3[nH]ccc32)N1` [Compound 14], at ALR2, the Kd is 6.9 µM and 6.89 µM. For the same molecule, the inhibition at 20 µM in assay [1] was over 50%. The concentration for half-maximal inhibition (IC50) in assay [1] (recombinant ALR2, DL-glyceraldehyde substrate, NADPH, PBS pH 6.2, 10 min at 25 °C, OD340nm, read-out: IC50 of ALR2 inhibitory activity) was found to be 13.1 µM.
